Reference: patent US6274715A, “Tricyclic erythromycin derivatives” (priority 1997, dated 2001)
Converted amounts (≈) assume the structure as drawn.

Experiments:
Assay type in all cases: cell-based
[1] = system: STAPHYLOCOCCUS AUREUS ATCC 6538P; test: In vitro antibacterial activity, MIC, BHI agar dilution; conditions: S. aureus ATCC 6538P, 35-37° C., 20 to 24 hours, unit assumed
[2] = system: STAPHYLOCOCCUS AUREUS CMX 553; test: as above; conditions: S. aureus CMX 553, unit assumed
M[…] ATCC 9341 = test: as above; conditions: M. luteus ATCC 9341, unit assumed
Procedure, shortened: (§1)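 BHI agar dilution, 12 plates; inoculum 1:100 (1:10 slow-growing strains), Steers replicator; 35-37° C, 20-24 h. MIC = lowest conc. with no growth/slight haze/sparse colonies vs growth control, visual read. Erythromycin A reference plate.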

STR[…] 508 = test: as above; conditions: S. agalactiae CMX 508, unit assumed
Procedure, shortened: as §1

EN[…] ATCC 8043 = test: as above; conditions: E. faecium ATCC 8043, unit assumed
Procedure, shortened: as §1

M[…] ATCC 4698 = test: as above; conditions: M. luteus ATCC 4698, unit assumed
Procedure, shortened: as §1

[3] = system: ACINETOBACTER CALCOACETICUS CMX 669; test: as above; conditions: A. calcoaceticus CMX 669, unit assumed
PSEUDOMONAS CEPACIA 296I = test: as above; conditions: P. cepacia 296I, unit assumed
[4] = system: PSEUDOMONAS AERUGINOSA K799/WT; test: as above; conditions: P. aeruginosa K799/WT, unit assumed
[5] = system: STAPHYLOCOCCUS AUREUS NCTC10649M; test: as above; conditions: S. aureus NCTC10649M, unit assumed
[6] = system: STAPHYLOCOCCUS AUREUS A5177; test: as above; conditions: S. aureus A5177, unit assumed
[7] = system: KLEBSIELLA PNEUMONIAE ATCC 8045; test: as above; conditions: K. pneumoniae ATCC 8045, unit assumed
[8] = system: ENTEROBACTER AEROGENES ATCC 13048; test: as above; conditions: E. aerogenes ATCC 13048, unit assumed
[9] = system: STAPHYLOCOCCUS AUREUS 1775; test: as above; conditions: S. aureus 1775, unit assumed
[10] = system: STAPHYLOCOCCUS EPIDERMIDIS 3519; conditions: S. epidermidis 3519; BHI agar; unit assumed
ESCHERICHIA COLI DC-2 = test: In vitro antibacterial activity, MIC, BHI agar dilution; conditions: E. coli DC-2, unit assumed
[11] = system: STREPTOCOCCUS PYOGENES PIU 2548; test: as above; conditions: S. pyogenes PIU 2548, unit assumed
[12] = system: STAPHYLOCOCCUS AUREUS A-5278; test: as above; conditions: S. aureus A-5278, unit assumed
ESCHERICHIA COLI H560 = test: as above; conditions: E. coli H560, unit assumed
CANDIDA ALBICANS CCH 442 = test: as above; conditions: C. albicans CCH 442, unit assumed
[13] = system: PSEUDOMONAS AERUGINOSA 5007; test: as above; conditions: P. aeruginosa 5007, unit assumed
[14] = system: STREPTOCOCCUS PYOGENES 930; test: as above; conditions: S. pyogenes 930, unit assumed
[15] = system: PSEUDOMONAS AERUGINOSA DPHD-5263; test: as above; conditions: P. aeruginosa DPHD-5263, unit assumed
[16] = system: PSEUDOMONAS AERUGINOSA K799/61; test: as above; conditions: P. aeruginosa K799/61, unit assumed
[17] = system: PROVIDENCIA STUARTII CMX 640; conditions: P. stuartii CMX 640; BHI agar; unit assumed
ESCHERICHIA COLI KNK 437 = conditions: E. coli KNK 437; BHI agar; unit assumed
[18] = system: STAPHYLOCOCCUS AUREUS CMX 642A; test: In vitro antibacterial activity, MIC, BHI agar dilution; conditions: S. aureus CMX 642A, unit assumed
[19] = system: PSEUDOMONAS AERUGINOSA BMH10; test: as above; conditions: P. aeruginosa BMH10, unit assumed
[20] = system: STREPTOCOCCUS PYOGENES EES61; test: as above; conditions: S. pyogenes EES61, unit assumed
[21] = system: PSEUDOMONAS AERUGINOSA DPHD-2862; test: as above; conditions: P. aeruginosa DPHD-2862, unit assumed
[22] = system: MYCOBACTERIUM SMEGMATIS ATCC 114; test: as above; conditions: M. smegmatis ATCC 114, unit assumed
ESCHERICHIA COLI SS = test: as above; conditions: E. coli SS, unit assumed
[23] = system: STREPTOCOCCUS BOVIS A-5169; test: as above; conditions: S. bovis A-5169, unit assumed
ESCHERICHIA COLI JUHL = conditions: E. coli JUHL; BHI agar; unit assumed

SMILES	MIC [1] [µg/mL]	MIC [2] [µg/mL]	MIC (M[…] ATCC 9341) [µg/mL]	MIC (STR[…] 508) [µg/mL]	MIC (EN[…] ATCC 8043) [µg/mL]	MIC (M[…] ATCC 4698) [µg/mL]	MIC [3] [µg/mL]	MIC (PSEUDOMONAS CEPACIA 296I) [µg/mL]	MIC [4] [µg/mL]	MIC [5] [µg/mL]	MIC [7] [µg/mL]	MIC [8] [µg/mL]	MIC [9] [µg/mL]	MIC [10] [µg/mL]	MIC (ESCHERICHIA COLI DC-2) [µg/mL]	MIC [12] [µg/mL]	MIC (ESCHERICHIA COLI H560) [µg/mL]	MIC (CANDIDA ALBICANS CCH 442) [µg/mL]	MIC [13] [µg/mL]	MIC [14] [µg/mL]	further results
CC[C@H]1OC(=O)[C@H](C)C(=O)[C@H](C)[C@@H](O[C@@H]2O[C@H](C)C[C@H](N(C)C)[C@H]2O)[C@](C)(OC)C[C@@H](C)C2=NC[C@@H](C)N3C(=O)O[C@@]1(C)[C@H]3[C@H]2C [Example 9]	0.39 (≈ 0.598 µM)	0.39 (≈ 0.598 µM)	0.1 (≈ 0.153 µM)	0.01 (≈ 0.0153 µM)	0.05 (≈ 0.0767 µM)	0.39 (≈ 0.598 µM)	12.5 (≈ 19.2 µM)	> 100	100 (≈ 153 µM)	0.2 (≈ 0.307 µM)	25 (≈ 38.4 µM)	25 (≈ 38.4 µM)	> 100	0.39 (≈ 0.598 µM)	25 (≈ 38.4 µM)	> 100	25 (≈ 38.4 µM)	> 100	> 100	> 100	MIC [6]: 0.39 µg/mL (≈ 0.598 µM); MIC [11]: 0.39 µg/mL (≈ 0.598 µM); MIC [15]: > 100 µg/mL; MIC [16]: 6.2 µg/mL (≈ 9.51 µM); MIC [17]: > 100 µg/mL; MIC (ESCHERICHIA COLI KNK 437): 100 µg/mL (≈ 153 µM); MIC [18]: 0.39 µg/mL (≈ 0.598 µM); MIC [19]: 100 µg/mL (≈ 153 µM); MIC [20]: 0.01 µg/mL (≈ 0.0153 µM); MIC [21]: > 100 µg/mL; MIC [22]: 3.1 µg/mL (≈ 4.76 µM)
CC[C@H]1OC(=O)[C@H](C)C(=O)[C@H](C)[C@@H](O[C@@H]2O[C@H](C)C[C@H](N(C)C)[C@H]2O)[C@](C)(OC)C[C@@H](C)C2=NC[C@H](CO)N3C(=O)O[C@@]1(C)[C@H]3[C@H]2C [Example 63]	0.78 (≈ 1.17 µM)	1.56 (≈ 2.34 µM)	0.2 (≈ 0.299 µM)	0.2 (≈ 0.299 µM)	0.2 (≈ 0.299 µM)	0.78 (≈ 1.17 µM)	100 (≈ 150 µM)	> 100	> 100	0.78 (≈ 1.17 µM)	> 100	> 100	> 100	0.78 (≈ 1.17 µM)	> 100	> 100	50 (≈ 74.9 µM)	> 100	> 100	> 100	MIC [6]: 0.78 µg/mL (≈ 1.17 µM); MIC (ESCHERICHIA COLI SS): 0.78 µg/mL (≈ 1.17 µM); MIC [15]: > 100 µg/mL; MIC [17]: > 100 µg/mL; MIC [23]: 0.05 µg/mL (≈ 0.0749 µM); MIC (ESCHERICHIA COLI KNK 437): > 100 µg/mL; MIC [18]: 1.56 µg/mL (≈ 2.34 µM); MIC [19]: > 100 µg/mL; MIC [20]: 0.1 µg/mL (≈ 0.15 µM); MIC [21]: > 100 µg/mL; MIC [22]: 6.2 µg/mL (≈ 9.28 µM)
CC[C@H]1OC(=O)[C@H](C)C(=O)[C@H](C)[C@@H](O[C@@H]2O[C@H](C)C[C@H](N(C)C)[C@H]2O)[C@](C)(OC)C[C@@H](C)C2=N[C@H](COCc3ccccc3Cl)CN3C(=O)O[C@@]1(C)[C@H]3[C@H]2C [Example 78]	0.39 (≈ 0.492 µM)	0.78 (≈ 0.984 µM)	0.02 (≈ 0.0252 µM)	≤ 0.005	0.05 (≈ 0.0631 µM)	0.39 (≈ 0.492 µM)	100 (≈ 126 µM)	> 100	> 100	0.39 (≈ 0.492 µM)	> 100	> 100	100 (≈ 126 µM)	0.39 (≈ 0.492 µM)	> 100	100 (≈ 126 µM)	> 100	100 (≈ 126 µM)	> 100	25 (≈ 31.5 µM)	MIC (ESCHERICHIA COLI JUHL): > 100 µg/mL; MIC [11]: 0.2 µg/mL (≈ 0.252 µM); MIC (ESCHERICHIA COLI SS): 1.56 µg/mL (≈ 1.97 µM); MIC [15]: > 100 µg/mL; MIC [16]: 3.1 µg/mL (≈ 3.91 µM); MIC [17]: > 100 µg/mL; MIC [23]: ≤ 0.005 µg/mL; MIC (ESCHERICHIA COLI KNK 437): > 100 µg/mL; MIC [18]: 0.78 µg/mL (≈ 0.984 µM); MIC [19]: > 100 µg/mL; MIC [20]: ≤ 0.005 µg/mL; MIC [21]: > 100 µg/mL; MIC [22]: 0.78 µg/mL (≈ 0.984 µM)
